In paper PMC5290327, “SC83288 is a clinical development candidate for the treatment of severe malaria” (Nature Communications, 2017):

Experiments:
Experiment in all cases: KINOMEscan
Type in all cases: binding
Details in all cases: read-out: Remaining enzyme activity
FGFR2 = molecular target: T1, FGFR2 (Homo sapiens, UniProt P21802)
T1 construct: purchased Ambit (DiscoverX) KINOMEscan; Cerep
Outline: (§1)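 Read-out: qPCR quantitation of DNA-tagged kinase eluted from affinity beads after competition with SC81458 (10 μM final). Kinases were expressed either as T7 phage fusions in E. coli or in HEK-293 cells.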

PCTK1 = molecular target: T2, PCTK1 (Homo sapiens, UniProt Q00536)
T2 construct: purchased Ambit (DiscoverX) KINOMEscan; Cerep
Outline: as §1

MARK2 = molecular target: T3, MARK2 (Homo sapiens, UniProt Q7KZI7)
T3 construct: purchased Ambit (DiscoverX) KINOMEscan; Cerep
Outline: as §1

PIK3Cd = molecular target: T4, PIK3Cd (Homo sapiens, UniProt O00329)
T4 construct: purchased Ambit (DiscoverX) KINOMEscan; Cerep
Outline: as §1

ABL1 = molecular target: T5, ABL1 (Homo sapiens, UniProt P00519)
T5 construct: purchased Ambit (DiscoverX) KINOMEscan; Cerep
Outline: as §1

PLK1 = molecular target: T6, PLK1 (Homo sapiens, UniProt P53350)
T6 construct: purchased Ambit (DiscoverX) KINOMEscan; Cerep
Outline: as §1

IKK-epsilon = molecular target: T7, IKK-epsilon (Homo sapiens, UniProt Q14164)
T7 construct: purchased Ambit (DiscoverX) KINOMEscan; Cerep
Outline: as §1

SgK085 = molecular target: T8, SgK085 (Homo sapiens, UniProt Q86YV6)
T8 construct: purchased Ambit (DiscoverX) KINOMEscan; Cerep
Outline: as §1

MET(M1250T) = molecular target: T9, MET(M1250T) (Homo sapiens, UniProt P08581, M1250T)
T9 construct: purchased Ambit (DiscoverX) KINOMEscan; Cerep
Outline: as §1

PIK3Cb = molecular target: T10, PIK3Cb (Homo sapiens, UniProt P42338)
T10 construct: purchased Ambit (DiscoverX) KINOMEscan; Cerep
Outline: as §1

MEK4 = molecular target: T11, MEK4 (Homo sapiens, UniProt P45985)
T11 construct: purchased Ambit (DiscoverX) KINOMEscan; Cerep
Outline: as §1

STK35 = molecular target: T12, STK35 (Homo sapiens, UniProt Q8TDR2)
T12 construct: purchased Ambit (DiscoverX) KINOMEscan; Cerep
Outline: as §1

PDGFRa = molecular target: T13, PDGFRa (Homo sapiens, UniProt P16234)
T13 construct: purchased Ambit (DiscoverX) KINOMEscan; Cerep
Outline: as §1

IKK-beta = molecular target: T14, IKK-beta (Homo sapiens, UniProt O14920)
T14 construct: purchased Ambit (DiscoverX) KINOMEscan; Cerep
Outline: as §1

MRCKB = molecular target: T15, MRCKB (Homo sapiens, UniProt Q9Y5S2)
T15 construct: purchased Ambit (DiscoverX) KINOMEscan; Cerep
Outline: as §1

LKB1 = molecular target: T16, LKB1 (Homo sapiens, UniProt Q15831)
T16 construct: purchased Ambit (DiscoverX) KINOMEscan; Cerep
Outline: as §1

KIT(V559D) = molecular target: T17, KIT(V559D) (Homo sapiens, UniProt P10721, V559D)
T17 construct: purchased Ambit (DiscoverX) KINOMEscan; Cerep
T17 sequence (P10721 26-976 V559D): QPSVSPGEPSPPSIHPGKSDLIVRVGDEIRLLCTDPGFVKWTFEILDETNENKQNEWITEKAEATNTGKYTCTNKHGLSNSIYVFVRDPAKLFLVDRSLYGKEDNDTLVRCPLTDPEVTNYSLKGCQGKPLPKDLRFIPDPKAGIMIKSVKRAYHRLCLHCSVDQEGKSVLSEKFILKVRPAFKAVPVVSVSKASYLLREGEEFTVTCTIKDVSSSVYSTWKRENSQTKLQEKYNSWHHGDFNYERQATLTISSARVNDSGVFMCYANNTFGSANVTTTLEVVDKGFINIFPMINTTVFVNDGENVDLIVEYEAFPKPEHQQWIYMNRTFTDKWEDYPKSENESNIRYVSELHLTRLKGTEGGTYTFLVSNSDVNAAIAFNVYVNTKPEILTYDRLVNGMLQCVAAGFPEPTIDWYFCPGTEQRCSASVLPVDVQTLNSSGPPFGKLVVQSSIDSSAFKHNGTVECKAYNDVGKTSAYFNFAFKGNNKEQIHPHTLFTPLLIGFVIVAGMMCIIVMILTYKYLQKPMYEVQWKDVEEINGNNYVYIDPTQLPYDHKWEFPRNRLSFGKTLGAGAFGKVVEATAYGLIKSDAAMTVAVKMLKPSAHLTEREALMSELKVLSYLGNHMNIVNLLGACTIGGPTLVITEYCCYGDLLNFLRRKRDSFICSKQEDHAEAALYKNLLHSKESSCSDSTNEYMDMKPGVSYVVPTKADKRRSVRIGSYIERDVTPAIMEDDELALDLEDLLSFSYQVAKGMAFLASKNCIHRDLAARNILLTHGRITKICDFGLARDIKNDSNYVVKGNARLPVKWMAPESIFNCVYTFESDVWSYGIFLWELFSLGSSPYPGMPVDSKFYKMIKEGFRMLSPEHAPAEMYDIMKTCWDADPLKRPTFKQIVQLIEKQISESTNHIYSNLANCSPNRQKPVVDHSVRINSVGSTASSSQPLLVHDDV
Outline: as §1

CAMK2d = molecular target: T18, CAMK2d (Homo sapiens, UniProt Q13557)
T18 construct: purchased Ambit (DiscoverX) KINOMEscan; Cerep
T18 sequence (Q13557 whole entry): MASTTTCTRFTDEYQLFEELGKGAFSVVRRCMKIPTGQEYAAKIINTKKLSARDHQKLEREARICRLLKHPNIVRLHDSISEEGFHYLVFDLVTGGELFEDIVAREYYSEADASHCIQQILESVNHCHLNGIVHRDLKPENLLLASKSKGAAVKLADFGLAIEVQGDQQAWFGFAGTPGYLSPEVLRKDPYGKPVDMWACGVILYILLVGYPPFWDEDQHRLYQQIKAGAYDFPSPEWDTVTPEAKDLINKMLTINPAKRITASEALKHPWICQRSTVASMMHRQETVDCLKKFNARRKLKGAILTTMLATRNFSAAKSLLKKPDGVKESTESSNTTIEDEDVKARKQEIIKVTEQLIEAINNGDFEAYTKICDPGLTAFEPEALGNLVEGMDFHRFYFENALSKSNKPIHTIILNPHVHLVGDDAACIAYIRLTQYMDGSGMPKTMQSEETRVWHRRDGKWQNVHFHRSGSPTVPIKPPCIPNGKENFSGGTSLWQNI
Outline: as §1

PRKX = molecular target: T19, PRKX (Homo sapiens, UniProt P51817)
T19 construct: purchased Ambit (DiscoverX) KINOMEscan; Cerep
Outline: as §1

GAK = molecular target: T20, GAK (Homo sapiens, UniProt O14976)
T20 construct: purchased Ambit (DiscoverX) KINOMEscan; Cerep
Outline: as §1

MAK = molecular target: T21, MAK (Homo sapiens, UniProt P20794)
T21 construct: purchased Ambit (DiscoverX) KINOMEscan; Cerep
Outline: as §1

AXL = molecular target: T22, AXL (Homo sapiens, UniProt P30530)
T22 construct: purchased Ambit (DiscoverX) KINOMEscan; Cerep
Outline: as §1

CSK = molecular target: T23, CSK (Homo sapiens, UniProt P41240)
T23 construct: purchased Ambit (DiscoverX) KINOMEscan; Cerep
T23 sequence (P41240 whole entry): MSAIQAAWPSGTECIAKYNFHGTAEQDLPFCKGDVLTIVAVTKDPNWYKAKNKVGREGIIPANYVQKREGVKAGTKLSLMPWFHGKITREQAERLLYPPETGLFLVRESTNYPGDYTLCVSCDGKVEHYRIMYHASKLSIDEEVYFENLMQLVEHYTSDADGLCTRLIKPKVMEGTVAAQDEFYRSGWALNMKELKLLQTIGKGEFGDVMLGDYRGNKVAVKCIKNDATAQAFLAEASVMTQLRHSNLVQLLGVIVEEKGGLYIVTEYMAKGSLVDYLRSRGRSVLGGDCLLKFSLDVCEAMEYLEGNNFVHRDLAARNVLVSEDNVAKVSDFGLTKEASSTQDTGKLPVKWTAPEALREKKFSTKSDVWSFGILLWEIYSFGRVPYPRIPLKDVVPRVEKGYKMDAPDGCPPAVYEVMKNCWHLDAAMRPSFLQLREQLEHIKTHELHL
Outline: as §1

EPHB2 = molecular target: T24, EPHB2 (Homo sapiens, UniProt P29323)
T24 construct: purchased Ambit (DiscoverX) KINOMEscan; Cerep
Outline: as §1

MARK1 = molecular target: T25, MARK1 (Homo sapiens, UniProt Q9P0L2)
T25 construct: purchased Ambit (DiscoverX) KINOMEscan; Cerep
Outline: as §1

ERK4 = molecular target: T26, ERK4 (Homo sapiens, UniProt P31152)
T26 construct: purchased Ambit (DiscoverX) KINOMEscan; Cerep
Outline: as §1

p38-gamma = molecular target: T27, p38-gamma (Homo sapiens, UniProt P53778)
T27 construct: purchased Ambit (DiscoverX) KINOMEscan; Cerep
Outline: as §1

PIM3 = molecular target: T28, PIM3 (Homo sapiens, UniProt Q86V86)
T28 construct: purchased Ambit (DiscoverX) KINOMEscan; Cerep
Outline: as §1

MAPKAPK5 = molecular target: T29, MAPKAPK5 (Homo sapiens, UniProt Q8IW41)
T29 construct: purchased Ambit (DiscoverX) KINOMEscan; Cerep
T29 sequence (Q8IW41 whole entry): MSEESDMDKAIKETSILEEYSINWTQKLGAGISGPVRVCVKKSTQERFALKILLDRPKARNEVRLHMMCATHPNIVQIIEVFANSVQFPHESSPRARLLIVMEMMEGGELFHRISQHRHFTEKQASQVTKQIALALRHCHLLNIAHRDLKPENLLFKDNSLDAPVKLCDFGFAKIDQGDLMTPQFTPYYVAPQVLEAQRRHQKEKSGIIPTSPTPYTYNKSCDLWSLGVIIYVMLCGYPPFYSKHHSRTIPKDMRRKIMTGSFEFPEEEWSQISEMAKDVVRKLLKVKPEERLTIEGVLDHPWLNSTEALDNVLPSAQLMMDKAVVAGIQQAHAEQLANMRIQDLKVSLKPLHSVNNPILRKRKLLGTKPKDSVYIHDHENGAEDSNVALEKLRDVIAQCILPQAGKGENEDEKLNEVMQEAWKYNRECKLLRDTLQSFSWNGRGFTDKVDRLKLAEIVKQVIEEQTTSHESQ
Outline: as §1

MAST1 = molecular target: T30, MAST1 (Homo sapiens, UniProt Q9Y2H9)
T30 construct: purchased Ambit (DiscoverX) KINOMEscan; Cerep
Outline: as §1

TNIK = molecular target: T31, TNIK (Homo sapiens, UniProt Q9UKE5)
T31 construct: purchased Ambit (DiscoverX) KINOMEscan; Cerep
T31 sequence (Q9UKE5 whole entry): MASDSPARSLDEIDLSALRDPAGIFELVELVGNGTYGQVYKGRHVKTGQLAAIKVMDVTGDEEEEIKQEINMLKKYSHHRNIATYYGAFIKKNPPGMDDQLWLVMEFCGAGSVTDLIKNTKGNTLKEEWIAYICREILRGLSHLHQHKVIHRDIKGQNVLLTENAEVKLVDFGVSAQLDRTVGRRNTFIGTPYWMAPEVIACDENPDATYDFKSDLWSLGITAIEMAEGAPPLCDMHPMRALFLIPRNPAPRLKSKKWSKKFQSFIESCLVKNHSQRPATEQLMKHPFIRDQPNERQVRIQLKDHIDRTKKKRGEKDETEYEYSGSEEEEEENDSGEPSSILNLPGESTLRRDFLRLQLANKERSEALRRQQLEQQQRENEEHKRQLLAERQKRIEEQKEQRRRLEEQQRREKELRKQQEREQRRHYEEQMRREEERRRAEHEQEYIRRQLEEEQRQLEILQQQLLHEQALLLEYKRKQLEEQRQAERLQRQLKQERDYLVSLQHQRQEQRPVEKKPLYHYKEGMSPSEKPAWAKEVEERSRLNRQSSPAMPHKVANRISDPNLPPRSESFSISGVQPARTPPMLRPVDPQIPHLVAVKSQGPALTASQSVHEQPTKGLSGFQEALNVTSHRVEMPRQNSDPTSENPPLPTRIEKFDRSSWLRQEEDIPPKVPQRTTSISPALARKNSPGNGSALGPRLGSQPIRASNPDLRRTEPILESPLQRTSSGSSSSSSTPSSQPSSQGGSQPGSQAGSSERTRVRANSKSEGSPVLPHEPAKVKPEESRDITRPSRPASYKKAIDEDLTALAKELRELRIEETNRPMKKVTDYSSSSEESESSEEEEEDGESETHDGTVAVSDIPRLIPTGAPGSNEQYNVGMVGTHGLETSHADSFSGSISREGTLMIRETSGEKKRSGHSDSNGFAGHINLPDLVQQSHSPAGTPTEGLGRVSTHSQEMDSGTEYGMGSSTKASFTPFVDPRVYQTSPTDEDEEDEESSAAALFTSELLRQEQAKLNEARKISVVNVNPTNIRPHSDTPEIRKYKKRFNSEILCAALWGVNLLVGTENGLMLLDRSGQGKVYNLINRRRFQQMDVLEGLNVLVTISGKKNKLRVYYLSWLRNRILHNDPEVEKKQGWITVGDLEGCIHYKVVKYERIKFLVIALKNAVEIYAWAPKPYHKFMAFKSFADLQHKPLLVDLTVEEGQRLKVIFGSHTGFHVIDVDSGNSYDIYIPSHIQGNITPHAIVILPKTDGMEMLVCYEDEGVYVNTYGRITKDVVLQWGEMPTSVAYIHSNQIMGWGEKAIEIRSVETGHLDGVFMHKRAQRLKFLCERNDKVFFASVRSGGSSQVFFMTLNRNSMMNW
Outline: as §1

RRET(V804L) = molecular target: T32, RRET(V804L) (Homo sapiens, UniProt P07949, V804L)
T32 construct: purchased Ambit (DiscoverX) KINOMEscan; Cerep
T32 sequence (P07949 29-1114 V804L): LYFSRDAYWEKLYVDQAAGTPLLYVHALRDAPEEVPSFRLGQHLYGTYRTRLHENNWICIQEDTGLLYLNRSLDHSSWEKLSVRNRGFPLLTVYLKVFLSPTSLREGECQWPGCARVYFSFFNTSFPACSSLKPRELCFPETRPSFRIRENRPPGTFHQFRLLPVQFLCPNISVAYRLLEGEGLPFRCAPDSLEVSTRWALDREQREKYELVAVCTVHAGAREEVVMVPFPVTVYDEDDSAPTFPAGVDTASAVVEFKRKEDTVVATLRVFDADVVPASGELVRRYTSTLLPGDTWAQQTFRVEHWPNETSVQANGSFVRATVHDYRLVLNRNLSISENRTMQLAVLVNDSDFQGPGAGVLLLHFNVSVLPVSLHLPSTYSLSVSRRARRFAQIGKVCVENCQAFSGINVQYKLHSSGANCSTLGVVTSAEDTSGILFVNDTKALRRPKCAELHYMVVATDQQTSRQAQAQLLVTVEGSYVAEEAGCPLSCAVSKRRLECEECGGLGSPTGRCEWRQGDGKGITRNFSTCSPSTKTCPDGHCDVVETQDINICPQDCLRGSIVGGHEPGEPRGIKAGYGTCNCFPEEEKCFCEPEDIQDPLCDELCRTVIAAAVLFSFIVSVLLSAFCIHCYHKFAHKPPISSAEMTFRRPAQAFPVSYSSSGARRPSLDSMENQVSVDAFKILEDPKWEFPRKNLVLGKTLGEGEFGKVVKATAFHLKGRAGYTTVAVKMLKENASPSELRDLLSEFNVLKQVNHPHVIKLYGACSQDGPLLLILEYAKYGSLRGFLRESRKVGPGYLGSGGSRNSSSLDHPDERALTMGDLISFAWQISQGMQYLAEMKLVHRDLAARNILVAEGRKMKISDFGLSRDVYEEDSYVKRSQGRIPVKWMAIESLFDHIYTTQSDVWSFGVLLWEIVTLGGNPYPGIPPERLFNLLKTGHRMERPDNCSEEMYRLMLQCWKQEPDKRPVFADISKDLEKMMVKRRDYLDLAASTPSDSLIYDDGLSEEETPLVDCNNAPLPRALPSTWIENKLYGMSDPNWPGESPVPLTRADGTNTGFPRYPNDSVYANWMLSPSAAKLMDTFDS
Outline: as §1

GRK4 = molecular target: T33, GRK4 (Homo sapiens, UniProt P32298)
T33 construct: purchased Ambit (DiscoverX) KINOMEscan; Cerep
Outline: as §1

LCK = molecular target: T34, LCK (Homo sapiens, UniProt P06239)
T34 construct: purchased Ambit (DiscoverX) KINOMEscan; Cerep
Outline: as §1

CCCCN1CCN(C(=N)c2cccc(NC(=O)Nc3ccc(S(=O)(=O)NCc4ccc(S(N)(=O)=O)cc4)cc3)c2)CC1 [SC81458, 4-(3-(3-((4-butylpiperazin-1-yl)(imino)methyl)phenyl)ureido)-N-(4-sulfamoylbenzyl) benzenesulfonamide]
remaining binding at 10 µM (FGFR2): 100%
remaining binding at 10 µM (PCTK1): 92%
remaining binding at 10 µM (MARK2): 100%
remaining binding at 10 µM (PIK3Cd): 73%
remaining binding at 10 µM (ABL1): 100%
remaining binding at 10 µM (PLK1): 96%
remaining binding at 10 µM (IKK-epsilon): 100%
remaining binding at 10 µM (SgK085): 100%
remaining binding at 10 µM (MET(M1250T)): 100%
remaining binding at 10 µM (PIK3Cb): 70%
remaining binding at 10 µM (MEK4): 100%
remaining binding at 10 µM (STK35): 87%
remaining binding at 10 µM (PDGFRa): 87%
remaining binding at 10 µM (IKK-beta): 100%
remaining binding at 10 µM (MRCKB): 99%
remaining binding at 10 µM (LKB1): 88%
remaining binding at 10 µM (KIT(V559D)): 100%
remaining binding at 10 µM (CAMK2d): 90%
remaining binding at 10 µM (PRKX): 72%
remaining binding at 10 µM (GAK): 92%
remaining binding at 10 µM (MAK): 91%
remaining binding at 10 µM (AXL): 100%
remaining binding at 10 µM (CSK): 100%
remaining binding at 10 µM (EPHB2): 100%
remaining binding at 10 µM (MARK1): 100%
remaining binding at 10 µM (ERK4): 100%
remaining binding at 10 µM (p38-gamma): 85%
remaining binding at 10 µM (PIM3): 100%
remaining binding at 10 µM (MAPKAPK5): 91%
remaining binding at 10 µM (MAST1): 46%
remaining binding at 10 µM (TNIK): 100%
remaining binding at 10 µM (RRET(V804L)): 100%
remaining binding at 10 µM (GRK4): 92%
remaining binding at 10 µM (LCK): 100%
